In ChEMBL document CHEMBL1909046, “DrugMatrix in vitro pharmacology data”:

How the values were obtained:
[1] = molecular target: T1, Alpha-2A adrenergic receptor (Homo sapiens, UniProt P08913); format: cell membranes, Sf9, Membrane; further: in other assays of this panel Not Active means under 50% inhibition at 10 µM
T1 sequence (P08913 whole entry): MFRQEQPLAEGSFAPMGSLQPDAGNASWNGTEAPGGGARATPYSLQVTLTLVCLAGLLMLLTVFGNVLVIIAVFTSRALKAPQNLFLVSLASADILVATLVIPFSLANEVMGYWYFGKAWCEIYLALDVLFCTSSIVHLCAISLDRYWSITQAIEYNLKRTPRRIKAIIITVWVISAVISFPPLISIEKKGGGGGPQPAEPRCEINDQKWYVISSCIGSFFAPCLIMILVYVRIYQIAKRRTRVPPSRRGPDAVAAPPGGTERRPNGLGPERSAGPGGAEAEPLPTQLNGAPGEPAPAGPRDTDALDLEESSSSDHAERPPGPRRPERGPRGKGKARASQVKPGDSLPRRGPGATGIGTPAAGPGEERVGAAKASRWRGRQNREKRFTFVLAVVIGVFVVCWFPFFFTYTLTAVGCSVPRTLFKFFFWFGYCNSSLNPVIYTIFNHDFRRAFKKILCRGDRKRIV

[2] = molecular target: Sigma non-opioid intracellular receptor 1 (Homo sapiens, UniProt Q99720); assay: DRUGMATRIX: Sigma1 radioligand binding (ligand: [3H] Haloperidol); format: cell membranes, Jurkat, Membrane; conditions: jurkat; Not Active = under 50% inhibition at 10 µM
Sigma non-opioid intracellular receptor 1, sequence (Q99720 whole entry): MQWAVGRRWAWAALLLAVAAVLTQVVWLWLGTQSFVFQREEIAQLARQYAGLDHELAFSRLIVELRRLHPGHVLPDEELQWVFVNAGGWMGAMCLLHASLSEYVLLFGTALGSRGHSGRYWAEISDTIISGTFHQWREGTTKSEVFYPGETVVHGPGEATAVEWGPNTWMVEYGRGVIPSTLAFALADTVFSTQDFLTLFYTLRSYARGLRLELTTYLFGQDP

Progesterone receptor = molecular target: T2, Progesterone receptor (Bos taurus, UniProt Q690N0); assay: DRUGMATRIX: Progesterone radioligand binding (ligand: [3H] R-5020); format: tissue-based, Uterus; conditions: Not Active = under 50% inhibition at 10 µM
T2 sequence (Q690N0 whole entry): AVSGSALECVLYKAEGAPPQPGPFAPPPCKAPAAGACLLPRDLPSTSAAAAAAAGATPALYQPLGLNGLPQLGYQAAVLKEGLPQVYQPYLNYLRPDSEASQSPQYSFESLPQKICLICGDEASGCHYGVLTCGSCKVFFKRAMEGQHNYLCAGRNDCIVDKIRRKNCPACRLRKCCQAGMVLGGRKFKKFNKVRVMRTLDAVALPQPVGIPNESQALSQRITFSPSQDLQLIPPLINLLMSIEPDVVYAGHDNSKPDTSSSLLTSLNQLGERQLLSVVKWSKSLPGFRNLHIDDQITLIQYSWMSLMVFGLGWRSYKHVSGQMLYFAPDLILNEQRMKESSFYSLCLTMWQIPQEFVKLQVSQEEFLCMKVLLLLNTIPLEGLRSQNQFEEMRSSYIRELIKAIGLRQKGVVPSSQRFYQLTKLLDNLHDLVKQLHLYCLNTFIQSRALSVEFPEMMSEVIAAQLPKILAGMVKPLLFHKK

[3] = molecular target: T3, Alpha-1B adrenergic receptor (Rattus norvegicus, UniProt P15823); assay: DRUGMATRIX: Alpha-1B adrenergic receptor radioligand binding (ligand: prazosin); format: cell membranes, Wistar, Liver, Membrane; conditions: Not Active = under 50% inhibition at 10 µM
T3 sequence (P15823 whole entry): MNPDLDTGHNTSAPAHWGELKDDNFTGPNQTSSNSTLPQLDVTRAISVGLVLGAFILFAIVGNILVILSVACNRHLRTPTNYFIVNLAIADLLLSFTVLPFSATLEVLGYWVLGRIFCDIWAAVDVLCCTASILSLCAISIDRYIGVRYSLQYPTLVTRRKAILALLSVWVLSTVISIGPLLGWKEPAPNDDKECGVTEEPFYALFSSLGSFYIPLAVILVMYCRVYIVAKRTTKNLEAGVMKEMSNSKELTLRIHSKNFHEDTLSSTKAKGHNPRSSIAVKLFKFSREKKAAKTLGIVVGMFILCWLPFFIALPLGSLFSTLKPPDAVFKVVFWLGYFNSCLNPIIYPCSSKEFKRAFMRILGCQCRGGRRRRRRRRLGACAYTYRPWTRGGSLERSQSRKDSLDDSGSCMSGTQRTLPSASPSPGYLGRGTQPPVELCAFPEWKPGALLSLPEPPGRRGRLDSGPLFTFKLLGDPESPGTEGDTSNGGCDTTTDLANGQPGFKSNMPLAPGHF

[4] = DRUGMATRIX: GABAA, Muscimol, Central radioligand binding (ligand: [3H] Muscimol); format: cell membranes, Rattus norvegicus, Wistar, Brain, Membrane; conditions: Not Active = under 50% inhibition at 10 µM
[5] = DRUGMATRIX: Interleukin IL-1 radioligand binding (ligand: [125I] interleukin 1beta); format: cell membranes, Membrane; conditions: nih3t3; Not Active = under 50% inhibition at 10 µM

| Molecule | IC50 ([1]; sf9) | IC50 [2] | IC50 (Progesterone receptor) | IC50 [3] | IC50 [4] | Ki [4] | IC50 [5] | Ki [5] | IC50 (Progesterone receptor; read-out: IC50) | Ki (Progesterone receptor; read-out: Ki) | IC50 ([1]; read-out: IC50) | Ki ([1]; read-out: Ki) | IC50 ([3]; read-out: IC50) | Ki ([3]; read-out: Ki) | Ki ([1]; sf9) | Ki [2] | Ki (Progesterone receptor) | Ki [3] |
| --- | --- | --- | --- | --- | --- | --- | --- | --- | --- | --- | --- | --- | --- | --- | --- | --- | --- | --- |
| CC[C@]1(O)C[C@@H]2CN(CCc3c([nH]c4ccccc34)[C@@](C(=O)OC)(c3cc4c(cc3OC)N(C)[C@H]3[C@@](O)(C(N)=O)[C@H](O)[C@]5(CC)C=CCN6CC[C@]43[C@@H]65)C2)C1 [VINDESINE] | Not Active | Not Active | Not Active | Not Active | Not Active | Not Active | Not Active | Not Active |  |  |  |  |  |  |  |  |  |  |
| CCOc1nc2cccc(C(=O)O)c2n1Cc1ccc(-c2ccccc2-c2nnn[nH]2)cc1 | Not Active | Not Active | Not Active | Not Active | Not Active | Not Active | Not Active | Not Active |  |  |  |  |  |  |  |  |  |  |
| C[S+](C)[O-] [DIMETHYL SULFOXIDE] | Not Active | Not Active | Not Active | Not Active | Not Active | Not Active | Not Active | Not Active |  |  |  |  |  |  |  |  |  |  |
| C[C@@H]1O[C@@H](O[C@H]2C[C@@H](O)[C@]3(CO)[C@H]4[C@H](O)C[C@]5(C)[C@@H](C6=CC(=O)OC6)CC[C@]5(O)[C@@H]4CC[C@]3(O)C2)[C@H](O)[C@H](O)[C@H]1O [OUABAIN] | Not Active | Not Active | Not Active | Not Active | Not Active | Not Active | Not Active | Not Active |  |  |  |  |  |  |  |  |  |  |
| C#C[C@]1(O)CC[C@H]2[C@@H]3CCC4=CC(=O)CC[C@]4(C)[C@H]3CC[C@@]21C [ETHISTERONE] | Not Active | Not Active |  | Not Active | Not Active | Not Active | Not Active | Not Active | 59 nM | 7.75 nM |  |  |  |  |  |  |  |  |
| O=C(c1ccccc1F)N1CCC(Cc2ccccc2)CC1 | Not Active | Not Active | Not Active | Not Active | Not Active | Not Active | Not Active | Not Active |  |  |  |  |  |  |  |  |  |  |
| O=C(O)CCNC(=O)c1ccc(/N=N/c2ccc(O)c(C(=O)O)c2)cc1 [BALSALAZIDE] | Not Active | Not Active | Not Active | Not Active | Not Active | Not Active | Not Active | Not Active |  |  |  |  |  |  |  |  |  |  |
| N=C(N)c1ccc(OCCCCCOc2ccc(C(=N)N)cc2)cc1 [PENTAMIDINE] |  | Not Active | Not Active |  | Not Active | Not Active | Not Active | Not Active |  |  | 1380 nM | 516 nM | 967 nM | 535 nM |  |  |  |  |
| CN1C(=O)CN=C(c2ccccc2)c2cc([N+](=O)[O-])ccc21 [NIMETAZEPAM] | Not Active | Not Active | Not Active | Not Active | Not Active | Not Active | Not Active | Not Active |  |  |  |  |  |  |  |  |  |  |
| NS(=O)(=O)c1cc(C2(O)NC(=O)c3ccccc32)ccc1Cl (centres undefined) [CHLORTHALIDONE] | Not Active | Not Active | Not Active | Not Active | Not Active | Not Active | Not Active | Not Active |  |  |  |  |  |  |  |  |  |  |
| CC(=O)OCC(=O)[C@@]1(O)CC[C@H]2[C@@H]3CCC4=CC(=O)CC[C@]4(C)[C@@]3(F)[C@@H](O)C[C@@]21C [FLUDROCORTISONE ACETATE] | Not Active | Not Active | Not Active | Not Active | Not Active | Not Active | Not Active | Not Active |  |  |  |  |  |  |  |  |  |  |
| COLISTIN | Not Active | Not Active | Not Active | Not Active | Not Active | Not Active | Not Active | Not Active |  |  |  |  |  |  | Not Active | Not Active | Not Active | Not Active |
| O=c1c(-c2ccc(O)cc2)coc2cc(O)cc(O)c12 [GENISTEIN] | Not Active | Not Active | Not Active | Not Active | Not Active | Not Active | Not Active | Not Active |  |  |  |  |  |  |  |  |  |  |
| CN1C[C@@H]2C[C@H]1CN2c1cc2c(cc1F)c(=O)c(C(=O)O)cn2C1CC1 [DANOFLOXACIN] | Not Active | Not Active | Not Active | Not Active | Not Active | Not Active | Not Active | Not Active |  |  |  |  |  |  |  |  |  |  |
| C[C@]12C=CC(=O)C=C1CC[C@H]1[C@@H]3C[C@@H](O)[C@](O)(C(=O)CO)[C@@]3(C)C[C@H](O)[C@@]12F [TRIAMCINOLONE] | Not Active | Not Active | Not Active | Not Active | Not Active | Not Active | Not Active | Not Active |  |  |  |  |  |  |  |  |  |  |
| CN1CCN(c2c(F)cc3c(=O)c(C(=O)O)cn(CCF)c3c2F)CC1 [FLEROXACIN] | Not Active | Not Active | Not Active | Not Active | Not Active | Not Active | Not Active | Not Active |  |  |  |  |  |  |  |  |  |  |
| CC(C)(C(=O)O)c1ccc(C(O)CCCN2CCC(C(O)(c3ccccc3)c3ccccc3)CC2)cc1 (centres undefined) [FEXOFENADINE] | Not Active | Not Active | Not Active | Not Active | Not Active | Not Active | Not Active | Not Active |  |  |  |  |  |  |  |  |  |  |
| CCOC(=O)c1ncn2c1CN(C)C(=O)c1cc(F)ccc1-2 [FLUMAZENIL] | Not Active | Not Active | Not Active | Not Active | Not Active | Not Active | Not Active | Not Active |  |  |  |  |  |  |  |  |  |  |
| NNCCc1ccccc1 [PHENELZINE] | Not Active | Not Active | Not Active | Not Active | Not Active | Not Active | Not Active | Not Active |  |  |  |  |  |  |  |  |  |  |
| COc1ccc2c(c1OC)C(=O)O[C@@H]2[C@H]1c2c(cc3c(c2OC)OCO3)CCN1C [NOSCAPINE] | Not Active | Not Active | Not Active | Not Active | Not Active | Not Active | Not Active | Not Active |  |  |  |  |  |  |  |  |  |  |
| COBALTOUS CHLORIDE | Not Active | Not Active | Not Active | Not Active | Not Active | Not Active | Not Active | Not Active |  |  |  |  |  |  | Not Active | Not Active | Not Active | Not Active |
| CC(=O)Oc1ccccc1C(=O)O [ASPIRIN] | Not Active | Not Active | Not Active | Not Active | Not Active | Not Active | Not Active | Not Active |  |  |  |  |  |  |  |  |  |  |
| CCN(CC)CCNC(=O)c1ccc(N)cc1 [PROCAINAMIDE] | Not Active | Not Active | Not Active | Not Active | Not Active | Not Active | Not Active | Not Active |  |  |  |  |  |  |  |  |  |  |
| Cc1c(O)cccc1C(=O)N[C@@H](CSc1ccccc1)[C@H](O)CN1C[C@H]2CCCC[C@H]2C[C@H]1C(=O)NC(C)(C)C | Not Active | Not Active |  | Not Active | Not Active | Not Active | Not Active | Not Active | 44500 nM | 5800 nM |  |  |  |  |  |  |  |  |
